Which logP does the source give for `CCCCCCCc1ccc(O)cc1O` here?
The logP was 2.9.

Which logP does the source give for `CCCCCCCCCc1cccc(O)c1O` here?
The logP was 4.86.

With `CCCCCCCCCCCc1cccc(O)c1` as the compound, how does the logP read?
The logP was 6.98.

For `CCCCCc1cccc(O)c1`, which logP is on record?
Its logP is 3.13.

With `CCCCCCCCCCCCc1ccc(O)cc1` as the compound, how does the logP read?
Its logP is 7.91.

For `CCCCCCCCCCCCCc1ccc(O)c(O)c1`, which logP is on record?
The logP was 8.42.

For `CCCCCCCCCCCCCCCc1ccc(O)cc1O`, which logP is on record?
Its logP is 8.29.

For `CCCCCCCCCCCc1ccc(O)cc1O`, which logP is on record?
The logP was 5.43.

Which logP does the source give for `CCCCCCCc1ccccc1O` here?
The logP was 4.45.

With `CCCCCCCCCCCc1ccc(O)c(O)c1` as the compound, how does the logP read?
Its logP is 6.94.

Which logP does the source give for `CCCCCCCc1cccc(O)c1O` here?
The logP was 3.59.

For `CCCCCCCCCCCc1cccc(O)c1O`, which logP is on record?
The logP was 6.3.

For `CCCCCCCCCCCCCCCc1cccc(O)c1O`, which logP is on record?
The logP was 9.27.

Which logP does the source give for `CCCCCCCCCCCCCc1ccc(O)cc1O` here?
Its logP is 6.84.

With `CCCCCCCCCc1ccc(O)cc1O` as the compound, how does the logP read?
Its logP is 4.1.

For `CCCCCCCCCc1cccc(O)c1`, which logP is on record?
The logP was 5.61.

Which logP does the source give for `CCCCCc1ccc(O)c(O)c1` here?
Its logP is 3.13.

Which logP does the source give for `CCCCCCCCCc1ccc(O)cc1` here?
Its logP is 5.76.

For `CCCCCCCCCCCCCc1ccccc1O`, which logP is on record?
Its logP is 8.61.

Which logP does the source give for `CCCCCCCCCCCc1ccccc1O` here?
Its logP is 7.17.

Which logP does the source give for `CCCCCCCCCc1ccccc1O` here?
The logP was 5.76.

For `CCCCCCCCCCCCCc1cccc(O)c1O`, which logP is on record?
Its logP is 7.75.

With `CCCCCCCCCCCCCCCc1cccc(O)c1` as the compound, how does the logP read?
The logP was 10.1.

With `CCCCCCCCCCCc1ccc(O)cc1` as the compound, how does the logP read?
Its logP is 7.18.

For `CCCCCCCCCCCCCc1cccc(O)c1`, which logP is on record?
Its logP is 8.84.

Which logP does the source give for `CCCCCCCc1ccc(O)cc1` here?
The logP was 4.15.

For `CCCCCCCCCCCCCCCc1ccccc1O`, which logP is on record?
The logP was 10.1.

Which logP does the source give for `CCCCCCCCCCCCCc1ccc(O)cc1` here?
The logP was 8.2.

For `CCCCCCCCCCCCCCCc1ccc(O)c(O)c1`, which logP is on record?
Its logP is 9.9.

For `CCCCCCCCCc1ccc(O)c(O)c1`, which logP is on record?
Its logP is 5.54.
